Data: the kinase profiling compilation of Christmann-Franck et al. (2016)
Several values for one entry are separate records, joined by “and”; a condition that tells them apart may be missing. Equal entries are not always repeated.

Tests used:
Assay in all cases: radiometric filter-binding kinase assay, Kinase HotSpot
Settings in all cases: compound 0.5 µM; ATP 10 µM
LCK (human) = LCK (human) (UniProt P06239)
IRAK1 (human) = IRAK1 (human) (UniProt P51617)
MAP3K7 TAB1 (human) = MAP3K7 TAB1 (human) (UniProt O43318+Q15750)
CLK1 (human) = CLK1 (human) (UniProt P49759)
STK17A (human) = STK17A (human) (UniProt Q9UEE5)
NEK6 (human) = NEK6 (human) (UniProt Q9HC98)
CAMK2B (human) = CAMK2B (human) (UniProt Q13554)
STK25 (human) = STK25 (human) (UniProt O00506)
PRKG1 (human) = PRKG1 (human) (UniProt Q13976)
MAP2K1 (human) = MAP2K1 (human) (UniProt Q02750)
NEK9 (human) = NEK9 (human) (UniProt Q8TD19)
ROCK2 (human) = ROCK2 (human) (UniProt O75116)
MAPK3 (human) = MAPK3 (human) (UniProt P27361)
CAMK2A (human) = CAMK2A (human) (UniProt Q9UQM7)
STK10 (human) = STK10 (human) (UniProt O94804)
TGFBR2 (human) = TGFBR2 (human) (UniProt P37173)
CDK4 CCND3 (human) = CDK4 CCND3 (human) (UniProt P30281+P11802)
MAPK8 (human) = MAPK8 (human) (UniProt P45983)
GRK5 (human) = GRK5 (human) (UniProt P34947)
CDK5 CDK5R1 p35 (human) = CDK5 CDK5R1 p35 (human) (UniProt Q00535+Q15078)
EPHB3 (human) = EPHB3 (human) (UniProt P54753)
MINK1 (human) = MINK1 (human) (UniProt Q8N4C8)
PASK (human) = PASK (human) (UniProt Q96RG2)
DCLK2 (human) = DCLK2 (human) (UniProt Q8N568)
CAMK1 (human) = CAMK1 (human) (UniProt Q14012)
STK16 (human) = STK16 (human) (UniProt O75716)
PNCK (human) = PNCK (human) (UniProt Q6P2M8)
CDK6 CCND3 (human) = CDK6 CCND3 (human) (UniProt P30281+Q00534)
CAMK4 (human) = CAMK4 (human) (UniProt Q16566)
CAMK2D (human) = CAMK2D (human) (UniProt Q13557)
MAP3K5 (human) = MAP3K5 (human) (UniProt Q99683)
STK33 (human) = STK33 (human) (UniProt Q9BYT3)
SRC (human) = SRC (human) (UniProt P12931)
MYLK (human) = MYLK (human) (UniProt Q15746)
STK38 (human) = STK38 (human) (UniProt Q15208)
MAPKAPK3 (human) = MAPKAPK3 (human) (UniProt Q16644)
JAK3 JH1 JH2 (human) = JAK3 JH1 JH2 (human) (UniProt P52333)
CAMK2G (human) = CAMK2G (human) (UniProt Q13555)
MAP4K4 (human) = MAP4K4 (human) (UniProt O95819)
FGR (human) = FGR (human) (UniProt P09769)
STK3 (human) = STK3 (human) (UniProt Q13188)
MAP3K11 (human) = MAP3K11 (human) (UniProt Q16584)

MINK1 (human), sequence (Q8N4C8 whole entry, looked up): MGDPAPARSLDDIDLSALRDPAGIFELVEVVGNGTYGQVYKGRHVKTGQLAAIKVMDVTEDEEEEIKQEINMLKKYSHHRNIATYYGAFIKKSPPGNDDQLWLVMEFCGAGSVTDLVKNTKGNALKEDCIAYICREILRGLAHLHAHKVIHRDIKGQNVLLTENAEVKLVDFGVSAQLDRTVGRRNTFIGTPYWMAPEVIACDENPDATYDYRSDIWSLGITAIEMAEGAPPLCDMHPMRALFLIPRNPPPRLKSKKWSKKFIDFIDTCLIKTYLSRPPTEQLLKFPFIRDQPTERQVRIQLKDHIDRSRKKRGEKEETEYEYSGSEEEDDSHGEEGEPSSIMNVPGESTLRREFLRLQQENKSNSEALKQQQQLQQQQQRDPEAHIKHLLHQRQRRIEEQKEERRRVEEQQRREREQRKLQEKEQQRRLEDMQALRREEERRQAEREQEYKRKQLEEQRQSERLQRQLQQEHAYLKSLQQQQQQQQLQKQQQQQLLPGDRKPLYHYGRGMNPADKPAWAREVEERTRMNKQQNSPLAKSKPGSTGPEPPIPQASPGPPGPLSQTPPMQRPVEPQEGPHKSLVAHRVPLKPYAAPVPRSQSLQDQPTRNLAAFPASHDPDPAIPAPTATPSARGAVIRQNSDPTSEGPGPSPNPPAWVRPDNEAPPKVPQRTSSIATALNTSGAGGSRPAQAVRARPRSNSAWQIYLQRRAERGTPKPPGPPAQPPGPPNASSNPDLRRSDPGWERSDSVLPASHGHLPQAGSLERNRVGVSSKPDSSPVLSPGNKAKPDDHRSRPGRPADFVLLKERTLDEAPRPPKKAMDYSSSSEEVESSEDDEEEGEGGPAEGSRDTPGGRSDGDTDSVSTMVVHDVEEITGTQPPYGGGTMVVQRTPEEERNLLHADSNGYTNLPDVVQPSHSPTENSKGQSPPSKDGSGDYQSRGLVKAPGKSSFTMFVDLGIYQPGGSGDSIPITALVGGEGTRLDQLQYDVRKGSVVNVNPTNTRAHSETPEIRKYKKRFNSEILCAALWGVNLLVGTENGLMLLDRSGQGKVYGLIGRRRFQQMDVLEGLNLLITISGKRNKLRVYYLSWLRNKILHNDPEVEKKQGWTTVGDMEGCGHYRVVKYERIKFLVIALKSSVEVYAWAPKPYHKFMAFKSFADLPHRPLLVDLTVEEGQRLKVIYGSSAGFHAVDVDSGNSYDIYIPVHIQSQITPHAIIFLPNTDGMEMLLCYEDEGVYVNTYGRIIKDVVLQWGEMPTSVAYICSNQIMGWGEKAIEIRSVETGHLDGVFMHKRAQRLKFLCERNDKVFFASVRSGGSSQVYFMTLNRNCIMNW
NEK6 (human), sequence (Q9HC98 whole entry, looked up): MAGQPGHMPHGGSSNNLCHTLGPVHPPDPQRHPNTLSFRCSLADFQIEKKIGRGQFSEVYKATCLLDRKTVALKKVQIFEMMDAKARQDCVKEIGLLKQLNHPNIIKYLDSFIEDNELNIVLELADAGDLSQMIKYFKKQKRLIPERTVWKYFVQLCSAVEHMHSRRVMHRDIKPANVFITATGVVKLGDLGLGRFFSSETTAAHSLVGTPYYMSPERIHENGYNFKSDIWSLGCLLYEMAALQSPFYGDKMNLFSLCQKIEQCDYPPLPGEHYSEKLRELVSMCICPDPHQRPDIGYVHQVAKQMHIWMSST
SRC (human), sequence (P12931 whole entry, looked up): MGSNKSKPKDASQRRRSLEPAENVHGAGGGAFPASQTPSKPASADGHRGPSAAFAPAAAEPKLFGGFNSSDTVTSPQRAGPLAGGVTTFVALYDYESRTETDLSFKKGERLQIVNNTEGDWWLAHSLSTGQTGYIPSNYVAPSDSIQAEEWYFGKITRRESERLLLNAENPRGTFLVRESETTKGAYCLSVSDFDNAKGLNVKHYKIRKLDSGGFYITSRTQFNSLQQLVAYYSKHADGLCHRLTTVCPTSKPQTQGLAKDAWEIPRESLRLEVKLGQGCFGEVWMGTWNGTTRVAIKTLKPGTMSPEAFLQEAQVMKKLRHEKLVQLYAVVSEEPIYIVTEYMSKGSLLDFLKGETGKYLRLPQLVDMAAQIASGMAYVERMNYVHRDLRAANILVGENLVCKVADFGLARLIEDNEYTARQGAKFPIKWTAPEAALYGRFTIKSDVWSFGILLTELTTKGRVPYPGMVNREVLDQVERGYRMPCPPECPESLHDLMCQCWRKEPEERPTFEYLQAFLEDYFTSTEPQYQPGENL
CDK6 CCND3 (human), sequence (P30281 whole entry, looked up): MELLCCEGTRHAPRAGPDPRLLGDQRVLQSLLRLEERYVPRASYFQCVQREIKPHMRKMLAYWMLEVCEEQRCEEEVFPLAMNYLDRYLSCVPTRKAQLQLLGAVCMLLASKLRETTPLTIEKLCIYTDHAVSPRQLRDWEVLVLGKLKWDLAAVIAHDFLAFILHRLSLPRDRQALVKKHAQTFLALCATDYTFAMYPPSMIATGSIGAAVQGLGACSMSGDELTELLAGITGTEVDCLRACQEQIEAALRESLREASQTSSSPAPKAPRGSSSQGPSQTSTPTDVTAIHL
CDK6 CCND3 (human), sequence (Q00534 whole entry, looked up): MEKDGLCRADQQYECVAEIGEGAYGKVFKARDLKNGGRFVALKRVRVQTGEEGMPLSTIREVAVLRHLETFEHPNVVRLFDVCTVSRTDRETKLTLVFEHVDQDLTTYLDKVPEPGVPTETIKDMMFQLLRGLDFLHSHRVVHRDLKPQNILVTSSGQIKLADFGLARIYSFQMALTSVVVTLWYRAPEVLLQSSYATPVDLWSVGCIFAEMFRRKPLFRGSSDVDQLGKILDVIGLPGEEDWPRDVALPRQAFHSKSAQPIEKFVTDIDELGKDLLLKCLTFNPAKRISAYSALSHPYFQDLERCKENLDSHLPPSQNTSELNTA
ROCK2 (human), sequence (O75116 whole entry, looked up): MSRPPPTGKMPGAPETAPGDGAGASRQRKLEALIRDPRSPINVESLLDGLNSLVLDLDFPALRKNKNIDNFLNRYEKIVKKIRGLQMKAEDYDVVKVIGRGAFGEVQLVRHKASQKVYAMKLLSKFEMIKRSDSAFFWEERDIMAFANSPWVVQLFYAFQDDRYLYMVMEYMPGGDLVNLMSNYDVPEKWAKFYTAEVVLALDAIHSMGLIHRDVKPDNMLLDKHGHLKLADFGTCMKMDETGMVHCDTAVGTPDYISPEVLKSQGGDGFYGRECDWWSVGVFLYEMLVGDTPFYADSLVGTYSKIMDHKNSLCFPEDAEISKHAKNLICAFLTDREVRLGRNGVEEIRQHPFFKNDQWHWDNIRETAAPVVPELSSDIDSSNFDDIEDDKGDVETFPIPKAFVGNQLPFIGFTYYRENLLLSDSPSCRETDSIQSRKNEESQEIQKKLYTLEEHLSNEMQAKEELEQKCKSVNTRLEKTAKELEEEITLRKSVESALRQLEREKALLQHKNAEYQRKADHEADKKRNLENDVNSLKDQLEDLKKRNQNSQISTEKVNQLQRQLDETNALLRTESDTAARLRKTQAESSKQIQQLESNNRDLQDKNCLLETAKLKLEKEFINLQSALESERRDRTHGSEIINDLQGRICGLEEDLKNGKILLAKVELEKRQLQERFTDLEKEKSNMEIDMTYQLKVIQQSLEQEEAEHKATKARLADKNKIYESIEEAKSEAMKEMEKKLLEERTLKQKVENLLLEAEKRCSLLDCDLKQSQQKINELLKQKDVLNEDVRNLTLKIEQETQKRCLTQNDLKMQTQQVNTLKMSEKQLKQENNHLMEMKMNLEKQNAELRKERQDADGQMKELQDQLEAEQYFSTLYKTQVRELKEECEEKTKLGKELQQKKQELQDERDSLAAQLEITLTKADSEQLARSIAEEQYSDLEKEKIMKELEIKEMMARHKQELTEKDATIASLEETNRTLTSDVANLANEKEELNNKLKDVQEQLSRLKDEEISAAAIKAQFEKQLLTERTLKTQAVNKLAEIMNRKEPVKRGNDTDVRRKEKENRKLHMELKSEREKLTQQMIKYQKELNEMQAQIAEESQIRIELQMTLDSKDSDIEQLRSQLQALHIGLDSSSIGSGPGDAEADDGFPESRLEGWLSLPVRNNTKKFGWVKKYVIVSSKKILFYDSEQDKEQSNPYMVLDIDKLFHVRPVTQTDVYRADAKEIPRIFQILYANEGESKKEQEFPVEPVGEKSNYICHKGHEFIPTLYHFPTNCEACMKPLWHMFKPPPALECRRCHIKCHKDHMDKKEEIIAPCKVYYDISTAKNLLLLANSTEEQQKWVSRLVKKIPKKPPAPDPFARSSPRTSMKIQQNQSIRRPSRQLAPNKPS
CAMK2G (human), sequence (Q13555 whole entry, looked up): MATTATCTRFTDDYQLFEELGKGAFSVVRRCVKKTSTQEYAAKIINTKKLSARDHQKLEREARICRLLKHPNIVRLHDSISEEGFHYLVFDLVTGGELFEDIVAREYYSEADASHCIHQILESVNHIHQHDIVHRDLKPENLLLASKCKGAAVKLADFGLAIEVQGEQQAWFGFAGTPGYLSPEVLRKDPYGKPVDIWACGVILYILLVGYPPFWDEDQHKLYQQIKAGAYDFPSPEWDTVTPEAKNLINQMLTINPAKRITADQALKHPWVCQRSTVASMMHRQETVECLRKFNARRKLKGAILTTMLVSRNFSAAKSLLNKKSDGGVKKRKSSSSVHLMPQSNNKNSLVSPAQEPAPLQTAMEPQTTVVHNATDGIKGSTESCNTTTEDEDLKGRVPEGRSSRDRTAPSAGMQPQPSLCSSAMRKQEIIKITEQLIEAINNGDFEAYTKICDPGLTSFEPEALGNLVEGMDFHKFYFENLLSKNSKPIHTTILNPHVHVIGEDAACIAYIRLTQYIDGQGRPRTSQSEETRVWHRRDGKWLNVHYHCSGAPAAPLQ
STK16 (human), sequence (O75716 whole entry, looked up): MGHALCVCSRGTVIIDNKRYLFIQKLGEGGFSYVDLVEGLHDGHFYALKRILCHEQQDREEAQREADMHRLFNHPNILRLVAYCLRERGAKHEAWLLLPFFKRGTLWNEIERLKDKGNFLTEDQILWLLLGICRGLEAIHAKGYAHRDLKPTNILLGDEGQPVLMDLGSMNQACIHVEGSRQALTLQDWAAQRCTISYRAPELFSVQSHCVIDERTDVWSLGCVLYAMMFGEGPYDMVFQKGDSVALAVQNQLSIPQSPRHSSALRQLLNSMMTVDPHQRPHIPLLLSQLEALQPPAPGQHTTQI

Molecule `CNc1cc2c(Nc3cccc(Br)c3)ncnc2cn1` has a residual activity (LCK (human)) of 96.7%, a residual activity (IRAK1 (human)) of 85.2% and a residual activity (MAP3K7 TAB1 (human)) of 94.9%. For the same molecule, the residual activity (CLK1 (human)) was 106%, the residual activity (STK17A (human)) was 98.4% and the residual activity (NEK6 (human)) was 89.8%. For the same molecule, the residual activity (CAMK2B (human)) was 95.8%, the residual activity (STK25 (human)) was 102% and the residual activity (PRKG1 (human)) was 107% and 92.7%. For the same molecule, the residual activity (MAP2K1 (human)) was 74.6%, the residual activity (NEK9 (human)) was 99.4% and the residual activity (ROCK2 (human)) was 99.5%. The residual activity (MAPK3 (human)) was 97.3%, the residual activity (CAMK2A (human)) was 105% and the residual activity (STK10 (human)) was 31.8%. For the same molecule, the residual activity (TGFBR2 (human)) was 105%, the residual activity (CDK4 CCND3 (human)) was 120% and the residual activity (MAPK8 (human)) was 96.4%. The residual activity (GRK5 (human)) was 120%, the residual activity (CDK5 CDK5R1 p35 (human)) was 100% and the residual activity (EPHB3 (human)) was 92.7%. For the same molecule, the residual activity (MINK1 (human)) was 91.9%, the residual activity (PASK (human)) was 86.9% and the residual activity (DCLK2 (human)) was 90.4%. For the same molecule, the residual activity (CAMK1 (human)) was 92.3%, the residual activity (STK16 (human)) was 98.6% and the residual activity (PNCK (human)) was 100%. It also gave a residual activity (CDK6 CCND3 (human)) of 90.8%, a residual activity (CAMK4 (human)) of 104% and a residual activity (CAMK2D (human)) of 97.9%. The residual activity (MAP3K5 (human)) was 94.6%, the residual activity (STK33 (human)) was 95.2% and the residual activity (SRC (human)) was 94.6%. It also gave a residual activity (MYLK (human)) of 79.5%, a residual activity (STK38 (human)) of 98.5% and a residual activity (MAPKAPK3 (human)) of 99.2%. It also gave a residual activity (JAK3 JH1 JH2 (human)) of 103%, a residual activity (CAMK2G (human)) of 105% and a residual activity (MAP4K4 (human)) of 86.9%. It also gave a residual activity (FGR (human)) of 88.3%, a residual activity (STK3 (human)) of 99.9% and a residual activity (MAP3K11 (human)) of 96.9%.

In the case of `COc1cc2ncnc(Nc3cccc(Cl)c3)c2cc1OC`, the residual activity (LCK (human)) is reported as 74.9%, the residual activity (IRAK1 (human)) is reported as 86.6% and the residual activity (MAP3K7 TAB1 (human)) is reported as 96.9%. The residual activity (CLK1 (human)) was 103%, the residual activity (STK17A (human)) was 95.4% and the residual activity (NEK6 (human)) was 105%. The residual activity (CAMK2B (human)) was 91.2%, the residual activity (STK25 (human)) was 101% and the residual activity (PRKG1 (human)) was 93.8% and 95.2%. The residual activity (MAP2K1 (human)) was 98.5%, the residual activity (NEK9 (human)) was 82.6% and the residual activity (ROCK2 (human)) was 92.6%. The residual activity (MAPK3 (human)) was 96.4%, the residual activity (CAMK2A (human)) was 98.2% and the residual activity (STK10 (human)) was 24.5%. It also gave a residual activity (TGFBR2 (human)) of 94.5%, a residual activity (CDK4 CCND3 (human)) of 103% and a residual activity (MAPK8 (human)) of 93.8%. For the same molecule, the residual activity (GRK5 (human)) was 105%, the residual activity (CDK5 CDK5R1 p35 (human)) was 91% and the residual activity (EPHB3 (human)) was 99.1%. It also gave a residual activity (MINK1 (human)) of 83.1%, a residual activity (PASK (human)) of 90.2% and a residual activity (DCLK2 (human)) of 94.7%. It also gave a residual activity (CAMK1 (human)) of 99.2%, a residual activity (STK16 (human)) of 101% and a residual activity (PNCK (human)) of 89.6%. The residual activity (CDK6 CCND3 (human)) was 90.1%, the residual activity (CAMK4 (human)) was 94.4% and the residual activity (CAMK2D (human)) was 96.1%. It also gave a residual activity (MAP3K5 (human)) of 106%, a residual activity (STK33 (human)) of 88.3% and a residual activity (SRC (human)) of 71.9%. It also gave a residual activity (MYLK (human)) of 89%, a residual activity (STK38 (human)) of 104% and a residual activity (MAPKAPK3 (human)) of 92.7%. The residual activity (JAK3 JH1 JH2 (human)) was 91.6%, the residual activity (CAMK2G (human)) was 97.3% and the residual activity (MAP4K4 (human)) was 68.1%. It also gave a residual activity (FGR (human)) of 75.3%, a residual activity (STK3 (human)) of 124% and a residual activity (MAP3K11 (human)) of 84.1%.

In the case of `Nc1ncnc2[nH]nc(Nc3ccc(F)cc3)c12`, the residual activity (LCK (human)) is reported as 98.3%, the residual activity (IRAK1 (human)) is reported as 91.8% and the residual activity (MAP3K7 TAB1 (human)) is reported as 100%. For the same molecule, the residual activity (CLK1 (human)) was 102%, the residual activity (STK17A (human)) was 88.1% and the residual activity (NEK6 (human)) was 102%. For the same molecule, the residual activity (CAMK2B (human)) was 97.7%, the residual activity (STK25 (human)) was 112% and the residual activity (PRKG1 (human)) was 95.7% and 96.9%. It also gave a residual activity (MAP2K1 (human)) of 101%, a residual activity (NEK9 (human)) of 97.9% and a residual activity (ROCK2 (human)) of 92.1%. It also gave a residual activity (MAPK3 (human)) of 105%, a residual activity (CAMK2A (human)) of 105% and a residual activity (STK10 (human)) of 70.5%. It also gave a residual activity (TGFBR2 (human)) of 101%, a residual activity (CDK4 CCND3 (human)) of 111% and a residual activity (MAPK8 (human)) of 111%. For the same molecule, the residual activity (GRK5 (human)) was 97.1%, the residual activity (CDK5 CDK5R1 p35 (human)) was 98.6% and the residual activity (EPHB3 (human)) was 87.7%. It also gave a residual activity (MINK1 (human)) of 88.9%, a residual activity (PASK (human)) of 91.8% and a residual activity (DCLK2 (human)) of 99.5%. The residual activity (CAMK1 (human)) was 103%, the residual activity (STK16 (human)) was 108% and the residual activity (PNCK (human)) was 98.4%. The residual activity (CDK6 CCND3 (human)) was 99.6%, the residual activity (CAMK4 (human)) was 103% and the residual activity (CAMK2D (human)) was 92.5%. For the same molecule, the residual activity (MAP3K5 (human)) was 111%, the residual activity (STK33 (human)) was 94.3% and the residual activity (SRC (human)) was 89.6%. The residual activity (MYLK (human)) was 94.7%, the residual activity (STK38 (human)) was 101% and the residual activity (MAPKAPK3 (human)) was 94%. It also gave a residual activity (JAK3 JH1 JH2 (human)) of 102%, a residual activity (CAMK2G (human)) of 119% and a residual activity (MAP4K4 (human)) of 59.4%. The residual activity (FGR (human)) was 89.5%, the residual activity (STK3 (human)) was 90.8% and the residual activity (MAP3K11 (human)) was 93.9%.

`CCN(CC)CCNC(=O)c1c(C)[nH]c(/C=C2\C(=O)Nc3ccc(Cl)cc32)c1C` gave a residual activity (LCK (human)) of 11.8%, a residual activity (IRAK1 (human)) of 14.1% and a residual activity (MAP3K7 TAB1 (human)) of 3.51%. It also gave a residual activity (CLK1 (human)) of 34.2%, a residual activity (STK17A (human)) of 16.1% and a residual activity (NEK6 (human)) of 97.8%. The residual activity (CAMK2B (human)) was 27.3%, the residual activity (STK25 (human)) was 56.1% and the residual activity (PRKG1 (human)) was 64.2% and 76.4%. The residual activity (MAP2K1 (human)) was 33.1%, the residual activity (NEK9 (human)) was 95.9% and the residual activity (ROCK2 (human)) was 73.5%. It also gave a residual activity (MAPK3 (human)) of 98.8%, a residual activity (CAMK2A (human)) of 3.6% and a residual activity (STK10 (human)) of 7.11%. It also gave a residual activity (TGFBR2 (human)) of 113%, a residual activity (CDK4 CCND3 (human)) of 86.3% and a residual activity (MAPK8 (human)) of 97.2%. For the same molecule, the residual activity (GRK5 (human)) was 82.7%, the residual activity (CDK5 CDK5R1 p35 (human)) was 86.2% and the residual activity (EPHB3 (human)) was 100%. For the same molecule, the residual activity (MINK1 (human)) was 4.4%, the residual activity (PASK (human)) was 89.6% and the residual activity (DCLK2 (human)) was 82.8%. The residual activity (CAMK1 (human)) was 75.9%, the residual activity (STK16 (human)) was 72.9% and the residual activity (PNCK (human)) was 70.5%. It also gave a residual activity (CDK6 CCND3 (human)) of 41.6%, a residual activity (CAMK4 (human)) of 95% and a residual activity (CAMK2D (human)) of 7.25%. The residual activity (MAP3K5 (human)) was 98.1%, the residual activity (STK33 (human)) was 20.6% and the residual activity (SRC (human)) was 26%. For the same molecule, the residual activity (MYLK (human)) was 17.6%, the residual activity (STK38 (human)) was 95.8% and the residual activity (MAPKAPK3 (human)) was 101%. It also gave a residual activity (JAK3 JH1 JH2 (human)) of 39.3%, a residual activity (CAMK2G (human)) of 8.13% and a residual activity (MAP4K4 (human)) of 4.33%. It also gave a residual activity (FGR (human)) of 11.5%, a residual activity (STK3 (human)) of 16.9% and a residual activity (MAP3K11 (human)) of 21%.
